The subject of one assay is HCT116 cells. The assay is described as follows: In vitro cytotoxicity measured by the cell colony formation assay. The note with it: HCT116 cells, 72 h drug incubation, colonies counted after 7 days; ID50 = drug concentration producing 50% inhibition of colony formation; read-out: IN VITRO ID 50 (nm) HCT116. It is filed as cell-based. An outline of the steps: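 Colony-forming survival was scored 7 days after a 72 h, 37 °C compound exposure followed by washout into fresh medium.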
As for `CCNC(=O)O[C@H]1C[C@H]2OC[C@@]2(OC(C)=O)C2[C@H](OC(=O)c3ccccc3)[C@]3(O)C[C@H](OC(=O)[C@H](O)[C@@H](NC(=O)OC(C)(C)C)c4ccco4)C(C)=C([C@@H](O)C(=O)[C@@]21C)C3(C)C` (stereo partly shown) [Compound 5393], the IC50 is less than 1 nM.
Take `CCNC(=O)O[C@H]1C[C@H]2OC[C@@]2(OC(C)=O)C2[C@H](OC(=O)c3ccccc3)[C@]3(O)C[C@H](OC(=O)[C@H](O)[C@@H](NC(=O)C=C(C)C)c4ccco4)C(C)=C([C@@H](O)C(=O)[C@@]21C)C3(C)C` (stereo partly shown) [Compound 5588]: the IC50 was less than 1 nM.

The assay is the same for the next values; noted with them: HCT116 cells, 72 h incubation with drug, colonies counted after 7 days; ID50 = drug concentration producing 50% inhibition of colony formation; read-out: IN VITRO ID 50 (nm) HCT116.
With `C/C=C/C(=O)N[C@@H](c1ccco1)[C@@H](O)C(=O)O[C@H]1C[C@@]2(O)[C@@H](OC(=O)c3ccccc3)C3[C@](C)(C(=O)[C@H](O)C(=C1C)C2(C)C)[C@@H](OC(=O)OC)C[C@H]1OC[C@@]31OC(C)=O` (stereo partly shown) [Compound 4744], the IC50 was less than 1 nM.
For `CCOC(=O)O[C@H]1C(=O)[C@@]2(C)C([C@H](OC(=O)c3ccccc3)[C@]3(O)C[C@H](OC(=O)[C@H](O)[C@@H](NC(=O)OCC(C)C)C4CC4)C(C)=C1C3(C)C)[C@]1(OC(C)=O)CO[C@@H]1C[C@@H]2O` (stereo partly shown) [Compound 4844], the IC50 is less than 1 nM.
Regarding `CCOC(=O)O[C@H]1C(=O)[C@@]2(C)C([C@H](OC(=O)c3ccccc3)[C@]3(O)C[C@H](OC(=O)[C@H](O)[C@@H](NC(=O)OC(C)(C)C)c4ccoc4)C(C)=C1C3(C)C)[C@]1(OC(C)=O)CO[C@@H]1C[C@@H]2O` (stereo partly shown) [Compound 1838], the IC50 was less than 1 nM.
With `C/C=C/C(=O)N[C@@H](c1ccoc1)[C@@H](O)C(=O)O[C@H]1C[C@@]2(O)[C@@H](OC(=O)c3ccccc3)C3[C@](C)(C(=O)[C@H](O)C(=C1C)C2(C)C)[C@@H](OC(=O)OC)C[C@H]1OC[C@@]31OC(C)=O` (stereo partly shown) [Compound 4877], the IC50 was less than 1 nM.
On the same count and under the same terms, then `C/C=C/C(=O)N[C@@H](c1cccs1)[C@@H](O)C(=O)O[C@H]1C[C@@]2(O)[C@@H](OC(=O)c3ccccc3)C3[C@](C)(C(=O)[C@H](O)C(=C1C)C2(C)C)[C@@H](OC(=O)OC)C[C@H]1OC[C@@]31OC(C)=O` (stereo partly shown) [Compound 4766], with less than 1 nM; and `CC(=O)O[C@@]12CO[C@@H]1C[C@H](OC(=O)OCc1ccccc1)[C@@]1(C)C(=O)[C@H](O)C3=C(C)[C@@H](OC(=O)[C@H](O)[C@@H](NC(=O)OC(C)(C)C)c4ccco4)C[C@@](O)([C@@H](OC(=O)c4ccccc4)C12)C3(C)C` (stereo partly shown) [Compound 5433], with less than 1 nM; and `CCOC(=O)O[C@H]1C[C@H]2OC[C@@]2(OC(C)=O)C2[C@H](OC(=O)c3ccccc3)[C@]3(O)C[C@H](OC(=O)[C@H](O)[C@@H](NC(=O)OCC(C)C)C4CC4)C(C)=C([C@@H](O)C(=O)[C@@]21C)C3(C)C` (stereo partly shown) [Compound 5225], with less than 10 nM.
In the case of `CCOC(=O)O[C@H]1C(=O)[C@@]2(C)C([C@H](OC(=O)c3ccccc3)[C@]3(O)C[C@H](OC(=O)[C@H](O)[C@H](C=C(C)C)NC(=O)OCC(C)C)C(C)=C1C3(C)C)[C@]1(OC(C)=O)CO[C@@H]1C[C@@H]2O` (stereo partly shown) [Compound 5155], the IC50 is less than 10 nM.

The same assay, now with this note: HCT116 cells, colony formation, 72 h incubation with drug, colonies counted after 7 days; ID50 = drug concentration producing 50% inhibition of colony formation; read-out: IN VITRO ID 50 (nm) HCT116.
With `CCNC(=O)O[C@H]1C(=O)[C@@]2(C)C([C@H](OC(=O)c3ccccc3)[C@]3(O)C[C@H](OC(=O)[C@H](O)[C@@H](NC(=O)OC(C)(C)C)C4CC4)C(C)=C1C3(C)C)[C@]1(OC(C)=O)CO[C@@H]1C[C@@H]2O` (stereo partly shown) [Compound 2757], the IC50 is less than 1 nM.

The same assay, now with this note: HCT116 colony formation; 72 h drug incubation, colonies counted after 7 days; Example 5, C-7 ester/C-10 hydroxy taxanes; read-out: IN VITRO ID 50 (nm) HCT116.
On to `CCC(=O)O[C@H]1C[C@H]2OC[C@@]2(OC(C)=O)C2[C@H](OC(=O)c3ccccc3)[C@]3(O)C[C@H](OC(=O)[C@H](O)[C@@H](NC(=O)OC(C)(C)C)C4CCC4)C(C)=C([C@@H](O)C(=O)[C@@]21C)C3(C)C` (stereo partly shown) [Compound 1447], for which the IC50 is less than 10 nM.
With `C/C=C/C(=O)N[C@@H](c1cccs1)[C@@H](O)C(=O)O[C@H]1C[C@@]2(O)[C@@H](OC(=O)c3ccccc3)C3[C@](C)(C(=O)[C@H](O)C(=C1C)C2(C)C)[C@@H](OC(=O)CC)C[C@H]1OC[C@@]31OC(C)=O` (stereo partly shown) [Compound 3560], the IC50 is less than 1 nM.
Turning to `CCC(=O)O[C@H]1C[C@H]2OC[C@@]2(OC(C)=O)C2[C@H](OC(=O)c3ccccc3)[C@]3(O)C[C@H](OC(=O)[C@H](O)[C@@H](NC(=O)OC(C)C)c4cccs4)C(C)=C([C@@H](O)C(=O)[C@@]21C)C3(C)C` (stereo partly shown) [Compound 3082], the IC50 is less than 1 nM.
Still for that read-out and setting: under `CC(=O)O[C@@]12CO[C@@H]1C[C@H](OC(=O)C=C(C)C)[C@@]1(C)C(=O)[C@H](O)C3=C(C)[C@@H](OC(=O)[C@H](O)[C@@H](NC(=O)OCC(C)C)c4ccco4)C[C@@](O)([C@@H](OC(=O)c4ccccc4)C12)C3(C)C` (stereo partly shown) [Compound 6040] stands less than 10 nM; under `CCC(=O)O[C@H]1C[C@H]2OC[C@@]2(OC(C)=O)C2[C@H](OC(=O)c3ccccc3)[C@]3(O)C[C@H](OC(=O)[C@H](O)[C@@H](NC(=O)OC(C)C)c4ccco4)C(C)=C([C@@H](O)C(=O)[C@@]21C)C3(C)C` (stereo partly shown) [Compound 3444], less than 1 nM; under `CCC(=O)O[C@H]1C[C@H]2OC[C@@]2(OC(C)=O)C2[C@H](OC(=O)c3ccccc3)[C@]3(O)C[C@H](OC(=O)[C@H](O)[C@@H](NC(=O)OCC(C)C)c4ccoc4)C(C)=C([C@@H](O)C(=O)[C@@]21C)C3(C)C` (stereo partly shown) [Compound 4787], less than 10 nM.
As for `CCCC(=O)O[C@H]1C[C@H]2OC[C@@]2(OC(C)=O)C2[C@H](OC(=O)c3ccccc3)[C@]3(O)C[C@H](OC(=O)[C@H](O)[C@@H](NC(=O)OC(C)C)c4cccs4)C(C)=C([C@@H](O)C(=O)[C@@]21C)C3(C)C` (stereo partly shown) [Compound 4135], the IC50 was less than 1 nM.

Still in this assay, the particulars now being: HCT116 colony formation; 72 h drug incubation, colonies counted after 7 days; Example 10, C-10 ester/C-7 hydroxy taxanes; read-out: IN VITRO ID 50 (nm) HCT116.
As for `C/C=C/C(=O)N[C@@H](c1ccsc1)[C@@H](O)C(=O)O[C@H]1C[C@@]2(O)[C@@H](OC(=O)c3ccccc3)C3[C@](C)(C(=O)[C@H](OC(=O)C4CC4)C(=C1C)C2(C)C)[C@@H](O)C[C@H]1OC[C@@]31OC(C)=O` (stereo partly shown) [Compound 5040], the IC50 is less than 1 nM.
Regarding `CC(=O)O[C@@]12CO[C@@H]1C[C@H](O)[C@@]1(C)C(=O)[C@H](OC(=O)C(C)C)C3=C(C)[C@@H](OC(=O)[C@H](O)[C@@H](NC(=O)OC(C)(C)C)c4ccoc4)C[C@@](O)([C@@H](OC(=O)c4ccccc4)C12)C3(C)C` (stereo partly shown) [Compound 2273], the IC50 is less than 1 nM.
As to `CC(=O)OC12COC1CC(O)C1(C)C(=O)C(OC(=O)c3cccs3)C3=C(C)C(OC(=O)C(O)C(C=C(C)C)NC(=O)OC(C)(C)C)CC(O)(C(OC(=O)c4ccccc4)C21)C3(C)C` (stereo not shown) [Compound 1879], the IC50 is less than 10 nM.
For the molecule `CCCC(=O)O[C@H]1C(=O)[C@@]2(C)C([C@H](OC(=O)c3ccccc3)[C@]3(O)C[C@H](OC(=O)[C@H](O)[C@@H](NC(=O)c4ccccc4)c4cccs4)C(C)=C1C3(C)C)[C@]1(OC(C)=O)CO[C@@H]1C[C@@H]2O` (stereo partly shown) [Compound 3258], the IC50 is less than 1 nM.
The same measure, in the same setting: then `CCC(=O)O[C@H]1C(=O)[C@@]2(C)C([C@H](OC(=O)c3ccccc3)[C@]3(O)C[C@H](OC(=O)[C@H](O)[C@@H](NC(=O)c4ccccc4)c4ccccc4)C(C)=C1C3(C)C)[C@]1(OC(C)=O)CO[C@@H]1C[C@@H]2O` (stereo partly shown) [Compound 0748], with less than 10 nM; and `CCC(=O)O[C@H]1C(=O)[C@@]2(C)C([C@H](OC(=O)c3ccccc3)[C@]3(O)C[C@H](OC(=O)[C@H](O)[C@@H](NC(=O)c4ccncc4)c4cccs4)C(C)=C1C3(C)C)[C@]1(OC(C)=O)CO[C@@H]1C[C@@H]2O` (stereo partly shown) [Compound 4207], with less than 10 nM; and `CC(=O)O[C@@]12CO[C@@H]1C[C@H](O)[C@@]1(C)C(=O)[C@H](OC(=O)C3CC3)C3=C(C)[C@@H](OC(=O)[C@H](O)[C@@H](NC(=O)OCC(C)C)c4ccco4)C[C@@](O)([C@@H](OC(=O)c4ccccc4)C12)C3(C)C` (stereo partly shown) [Compound 3102], with less than 1 nM.
On to `CC(=O)O[C@@]12CO[C@@H]1C[C@H](O)[C@@]1(C)C(=O)[C@H](OC(=O)C3CC3)C3=C(C)[C@@H](OC(=O)[C@H](O)[C@@H](NC(=O)OCC(C)C)C4CC4)C[C@@](O)([C@@H](OC(=O)c4ccccc4)C12)C3(C)C` (stereo partly shown) [Compound 5232], for which the IC50 is less than 10 nM.
Take `CC(=O)OC12COC1CC(O)C1(C)C(=O)C(OC(=O)c3ccco3)C3=C(C)C(OC(=O)C(O)C(NC(=O)OC(C)(C)C)C4CCC4)CC(O)(C(OC(=O)c4ccccc4)C21)C3(C)C` (stereo not shown) [Compound 2199]: the IC50 was less than 10 nM.
With `CCCC(=O)O[C@H]1C(=O)[C@@]2(C)C([C@H](OC(=O)c3ccccc3)[C@]3(O)C[C@H](OC(=O)[C@H](O)[C@@H](NC(=O)c4cccnc4)c4cccs4)C(C)=C1C3(C)C)[C@]1(OC(C)=O)CO[C@@H]1C[C@@H]2O` (stereo partly shown) [Compound 4190], the IC50 is less than 10 nM.
Turning to `CC(=O)O[C@@]12CO[C@@H]1C[C@H](O)[C@@]1(C)C(=O)[C@H](OC(=O)C3CC3)C3=C(C)[C@@H](OC(=O)[C@H](O)[C@@H](NC(=O)c4ccccc4)c4ccco4)C[C@@](O)([C@@H](OC(=O)c4ccccc4)C12)C3(C)C` (stereo partly shown) [Compound 0908], the IC50 was less than 1 nM.
On the same count and under the same terms, under `CCCC(=O)O[C@H]1C(=O)[C@@]2(C)C([C@H](OC(=O)c3ccccc3)[C@]3(O)C[C@H](OC(=O)[C@H](O)[C@@H](NC(=O)OC(C)(C)C)c4ccccn4)C(C)=C1C3(C)C)[C@]1(OC(C)=O)CO[C@@H]1C[C@@H]2O` (stereo partly shown) [Compound 0951] stands less than 1 nM; under `CCCC(=O)O[C@H]1C(=O)[C@@]2(C)C([C@H](OC(=O)c3ccccc3)[C@]3(O)C[C@H](OC(=O)[C@H](O)[C@@H](NC(=O)OC(C)(C)C)c4cccnc4)C(C)=C1C3(C)C)[C@]1(OC(C)=O)CO[C@@H]1C[C@@H]2O` (stereo partly shown) [Compound 0966], less than 10 nM.
